US20240308976A1, “COMPOUNDS THAT MEDIATE PROTEIN DEGRADATION AND USES THEREOF” (Monte Rosa Therapeutics, Inc., priority 2021, published 2024)

What was measured:
CRBN-DDB1 = CRBN-DDB1 (Homo sapiens, UniProt Q96SW2); assay: Compound binding to CRBN by HTRF assay; conditions: CRBN-DDB1 2.5 nM, Cy5-Thalidomide 100 nM, 30 min at ambient temperature; read-out: HTRF Class (Cereblon binding, HTRF IC50)
Method in brief: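 Cy5-thalidomide (100 nM) displacement from His-tagged CRBN-DDB1 (2.5 nM) read by terbium-cryptate HTRF (665/620 nm), in 20 mM HEPES, 20 mM NaCl, 0.2 mM TCEP, 0.2 mM EDTA, 0.005% Tween20. Compounds tested as 10-point 1:3 series, 30 min at ambient temperature. Signal normalised to DMSO and lenalidomide controls; IC50 fitted, Ki by Cheng-Prusoff.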

GSPT1 = biological target: T1, GSPT1 (Homo sapiens, UniProt P15170+Q96SW2); assay: Immunofluorescence assay for activity to degrade GSPT1 in CAL-51 cells; format: cell-based; conditions: 6 h treatment, read-out: IF Class (GSPT1 degradation, DC50)
T1 construct: CAL-51 cells were purchased from DSMZ (cat. Number ACC302); host or cells: CAL-51
Method in brief: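 CAL-51 cells treated 6 h with compound (30 μM to 0.1 nM), fixed, immunostained for GSPT1 with DAPI and phalloidin counterstains, imaged by high-content microscopy. Mean per-cell GSPT1 intensity normalized to controls; DC50 by non-linear regression.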

T1 sequence (P15170 whole entry): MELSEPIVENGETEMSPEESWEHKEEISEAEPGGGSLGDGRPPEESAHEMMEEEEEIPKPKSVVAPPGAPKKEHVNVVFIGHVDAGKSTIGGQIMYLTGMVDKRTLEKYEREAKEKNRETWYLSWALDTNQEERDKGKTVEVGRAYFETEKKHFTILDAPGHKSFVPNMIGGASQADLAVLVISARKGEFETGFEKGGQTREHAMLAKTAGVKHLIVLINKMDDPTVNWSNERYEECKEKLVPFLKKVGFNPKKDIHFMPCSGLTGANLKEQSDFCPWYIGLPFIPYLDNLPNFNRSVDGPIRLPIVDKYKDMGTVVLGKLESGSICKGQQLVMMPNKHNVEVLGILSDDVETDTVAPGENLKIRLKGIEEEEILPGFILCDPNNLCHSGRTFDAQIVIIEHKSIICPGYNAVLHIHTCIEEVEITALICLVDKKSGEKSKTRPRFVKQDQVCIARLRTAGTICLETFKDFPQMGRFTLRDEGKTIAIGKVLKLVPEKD
T1 sequence (Q96SW2 whole entry): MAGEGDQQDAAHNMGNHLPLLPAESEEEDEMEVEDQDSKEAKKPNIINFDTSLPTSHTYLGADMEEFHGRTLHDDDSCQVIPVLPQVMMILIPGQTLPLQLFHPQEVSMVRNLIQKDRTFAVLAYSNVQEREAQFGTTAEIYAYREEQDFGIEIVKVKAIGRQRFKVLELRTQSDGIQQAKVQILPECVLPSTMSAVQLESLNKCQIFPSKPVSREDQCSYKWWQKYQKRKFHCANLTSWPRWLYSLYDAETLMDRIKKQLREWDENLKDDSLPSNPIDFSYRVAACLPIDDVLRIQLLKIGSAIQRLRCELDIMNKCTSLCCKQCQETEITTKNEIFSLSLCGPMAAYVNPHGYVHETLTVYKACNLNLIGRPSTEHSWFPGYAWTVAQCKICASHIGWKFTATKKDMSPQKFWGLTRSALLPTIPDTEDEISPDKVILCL
T1 sequence (Q16531 2-1140 partner limits assumed): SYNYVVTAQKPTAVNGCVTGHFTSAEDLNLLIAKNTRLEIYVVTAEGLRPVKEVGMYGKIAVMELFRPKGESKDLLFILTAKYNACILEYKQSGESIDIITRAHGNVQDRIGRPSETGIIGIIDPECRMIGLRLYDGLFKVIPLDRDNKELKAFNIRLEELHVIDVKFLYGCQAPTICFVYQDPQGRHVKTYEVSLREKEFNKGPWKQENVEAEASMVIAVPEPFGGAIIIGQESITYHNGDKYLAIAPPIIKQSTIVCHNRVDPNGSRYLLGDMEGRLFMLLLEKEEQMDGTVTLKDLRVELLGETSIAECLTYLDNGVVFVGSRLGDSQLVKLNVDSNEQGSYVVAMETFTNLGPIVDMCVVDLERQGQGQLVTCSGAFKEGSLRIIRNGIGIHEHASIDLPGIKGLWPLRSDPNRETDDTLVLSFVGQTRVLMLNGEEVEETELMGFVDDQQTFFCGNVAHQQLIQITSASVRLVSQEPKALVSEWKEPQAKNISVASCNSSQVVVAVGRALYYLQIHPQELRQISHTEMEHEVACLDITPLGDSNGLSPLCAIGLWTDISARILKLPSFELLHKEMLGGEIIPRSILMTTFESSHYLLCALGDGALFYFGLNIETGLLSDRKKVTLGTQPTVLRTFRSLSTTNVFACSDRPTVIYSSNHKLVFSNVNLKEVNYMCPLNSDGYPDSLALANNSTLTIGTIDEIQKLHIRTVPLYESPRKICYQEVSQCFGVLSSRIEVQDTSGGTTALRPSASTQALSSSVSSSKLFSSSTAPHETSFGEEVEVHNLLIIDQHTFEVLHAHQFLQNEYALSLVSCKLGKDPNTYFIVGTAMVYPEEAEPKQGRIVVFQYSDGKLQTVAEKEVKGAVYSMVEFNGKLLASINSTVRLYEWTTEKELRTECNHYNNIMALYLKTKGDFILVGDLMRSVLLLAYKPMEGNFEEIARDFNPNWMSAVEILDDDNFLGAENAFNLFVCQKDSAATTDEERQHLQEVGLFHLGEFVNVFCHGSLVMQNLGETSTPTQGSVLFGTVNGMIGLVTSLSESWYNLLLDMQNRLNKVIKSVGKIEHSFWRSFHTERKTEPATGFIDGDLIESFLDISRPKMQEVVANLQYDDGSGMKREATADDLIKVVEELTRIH
Chain of CRBN-DDB1 (Q96SW2 whole entry): as the sequence (Q96SW2 whole entry) above
Chain of CRBN-DDB1 (Q16531 whole entry partner): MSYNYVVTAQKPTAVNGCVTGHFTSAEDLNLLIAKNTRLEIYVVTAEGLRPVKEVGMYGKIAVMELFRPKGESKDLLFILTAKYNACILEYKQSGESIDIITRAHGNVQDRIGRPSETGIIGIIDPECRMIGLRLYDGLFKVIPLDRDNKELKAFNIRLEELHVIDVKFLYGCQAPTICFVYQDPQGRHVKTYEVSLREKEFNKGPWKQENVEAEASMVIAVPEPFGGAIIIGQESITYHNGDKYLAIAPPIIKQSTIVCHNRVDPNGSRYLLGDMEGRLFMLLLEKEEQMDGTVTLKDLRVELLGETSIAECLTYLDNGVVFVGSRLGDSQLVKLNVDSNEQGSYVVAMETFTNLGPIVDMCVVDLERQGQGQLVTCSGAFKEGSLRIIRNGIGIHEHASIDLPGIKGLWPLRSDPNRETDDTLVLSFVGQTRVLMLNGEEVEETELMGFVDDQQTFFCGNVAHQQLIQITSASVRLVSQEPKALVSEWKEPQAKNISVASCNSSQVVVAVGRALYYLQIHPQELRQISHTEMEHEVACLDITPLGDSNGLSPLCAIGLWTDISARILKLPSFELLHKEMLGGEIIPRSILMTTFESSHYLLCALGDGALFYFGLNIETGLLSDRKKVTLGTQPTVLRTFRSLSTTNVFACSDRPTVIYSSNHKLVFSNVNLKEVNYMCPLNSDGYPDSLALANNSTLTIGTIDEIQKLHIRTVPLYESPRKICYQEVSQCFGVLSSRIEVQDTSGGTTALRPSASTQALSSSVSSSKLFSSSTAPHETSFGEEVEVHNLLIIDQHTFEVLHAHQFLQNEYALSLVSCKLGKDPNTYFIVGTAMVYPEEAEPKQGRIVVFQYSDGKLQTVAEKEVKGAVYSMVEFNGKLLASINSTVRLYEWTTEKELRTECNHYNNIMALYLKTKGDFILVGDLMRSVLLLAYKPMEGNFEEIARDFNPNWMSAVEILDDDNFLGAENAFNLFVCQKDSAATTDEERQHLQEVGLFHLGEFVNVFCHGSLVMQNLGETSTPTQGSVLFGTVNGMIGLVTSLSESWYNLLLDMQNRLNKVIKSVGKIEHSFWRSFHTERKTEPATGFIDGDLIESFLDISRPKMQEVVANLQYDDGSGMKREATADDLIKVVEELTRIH

O=C1CCC(c2c(F)cc(N3CC(OC(=O)NC45CC(C(F)F)(C4)C5)C3)cc2F)C(=O)N1 (stereo not drawn) [Compound 70, 1-(4-(2,6-dioxopiperidin-3-yl)-3,5-difluorophenyl)azetidin-3-yl(3-(difluoromethyl)bicyclo[1.1.1]pentan-1-yl)carbamate]
IC50 (CRBN-DDB1): 100 to 1000 nM | DC50 (GSPT1): ≤ 30 nM

O=C1CCC(c2c(F)cc(N3CC(OC(=O)NC45CC(N6CCOCC6)(C4)C5)C3)cc2F)C(=O)N1 (stereo not drawn) [Compound 71, 1-(4-(2,6-dioxopiperidin-3-yl)-3,5-difluorophenyl)azetidin-3-yl(3-morpholinobicyclo [1.1.1]pentan-1-yl) carbamate]
IC50 (CRBN-DDB1): 100 to 1000 nM | DC50 (GSPT1): > 300 nM

COc1cc(C)c(Cl)cc1NC(=O)NC1CN(c2ccc(C3CCC(=O)NC3=O)cc2)C1 (stereo not drawn) [Compound 72, 1-(5-chloro-2-methoxy-4-methylphenyl)-3-(1-(4-(2,6-dioxopiperidin-3-yl)phenyl)azetidin-3-yl)urea]
IC50 (CRBN-DDB1): > 1000 nM | DC50 (GSPT1): 30 to 300 nM

O=C1CCC(c2c(F)cc(N3CC(NC(=O)NC45CC(c6ccccc6)(C4)C5)C3)cc2F)C(=O)N1 (stereo not drawn) [Compound 73, 1-(1-(4-(2,6-dioxopiperidin-3-yl)-3,5-difluorophenyl)azetidin-3-yl)-3-(3-phenylbicyclo[1.1.1]pentan-1-yl)urea]
IC50 (CRBN-DDB1): 100 to 1000 nM | DC50 (GSPT1): ≤ 30 nM

O=C1CCC(c2ccc(N3CC(NC(=O)Nc4cc(OC(F)(F)F)ccn4)C3)cc2)C(=O)N1 (stereo not drawn) [Compound 74, 1-(1-(4-(2,6-dioxopiperidin-3-yl)phenyl)azetidin-3-yl)-3-(4-(trifluoromethoxy)pyridin-2-yl)urea]
IC50 (CRBN-DDB1): 100 to 1000 nM | DC50 (GSPT1): > 300 nM

COC(=O)C12CC(NC(=O)OC3CN(c4cc(F)c(C5CCC(=O)NC5=O)c(F)c4)C3)(C1)C2 (stereo not drawn) [Compound 75, methyl 3-((((1-(4-(2,6-dioxopiperidin-3-yl)-3,5-difluorophenyl)azetidin-3-yl)oxy)carbonyl)amino)bicyclo[1.1.1]pentane-1-carboxylate]
IC50 (CRBN-DDB1): 100 to 1000 nM | DC50 (GSPT1): 30 to 300 nM

Cc1cc(NC(=O)OC2CN(c3cc(F)c(C4CCC(=O)NC4=O)c(F)c3)C2)ccc1F (stereo not drawn) [Compound 76, 1-(4-(2,6-dioxopiperidin-3-yl)-3,5-difluorophenyl)azetidin-3-yl (4-fluoro-3-methylphenyl)carbamate]
IC50 (CRBN-DDB1): ≤ 100 nM | DC50 (GSPT1): ≤ 30 nM

O=C1CCC(c2c(F)cc(N3CC(NC(=O)N[C@H]4C[C@H](c5ccccc5)C4)C3)cc2F)C(=O)N1 (stereo partly drawn) [Compound 77, 1-(1-(4-(2,6-dioxopiperidin-3-yl)-3,5-difluorophenyl)azetidin-3-yl)-3-((1R,3R)-3-phenylcyclobutyl)urea]
IC50 (CRBN-DDB1): 100 to 1000 nM | DC50 (GSPT1): ≤ 30 nM

Cc1cc(F)cc(NC(=O)OC2CN(c3cc(F)c(C4CCC(=O)NC4=O)c(F)c3)C2)c1 (stereo not drawn) [Compound 78, 1-(4-(2,6-dioxopiperidin-3-yl)-3,5-difluorophenyl)azetidin-3-yl(3-fluoro-5-methylphenyl)carbamate]
IC50 (CRBN-DDB1): 100 to 1000 nM | DC50 (GSPT1): ≤ 30 nM

O=C1CCC(c2c(F)cc(N3CC(OC(=O)NC4CCCCC4)C3)cc2F)C(=O)N1 (stereo not drawn) [Compound 79, 1-(4-(2,6-dioxopiperidin-3-yl)-3,5-difluorophenyl)azetidin-3-yl cyclohexylcarbamate]
IC50 (CRBN-DDB1): 100 to 1000 nM | DC50 (GSPT1): 30 to 300 nM

C[C@H]1C[C@@H](NC(=O)OC2CN(c3cc(F)c(C4CCC(=O)NC4=O)c(F)c3)C2)C1 (stereo partly drawn) [Compound 80, 1-(4-(2,6-dioxopiperidin-3-yl)-3,5-difluorophenyl)azetidin-3-yl ((1S,3S)-3-methylcyclobutyl)carbamate]
IC50 (CRBN-DDB1): ≤ 100 nM | DC50 (GSPT1): ≤ 30 nM

O=C1CCC(c2c(F)cc(N3CC(OC(=O)N[C@H]4CCOC4)C3)cc2F)C(=O)N1 (stereo partly drawn) [Compound 81, 1-(4-(2,6-dioxopiperidin-3-yl)-3,5-difluorophenyl)azetidin-3-yl ((S)-tetrahydrofuran-3-yl)carbamate]
IC50 (CRBN-DDB1): 100 to 1000 nM | DC50 (GSPT1): > 300 nM

O=C1CCC(c2c(F)cc(N3CC(OC(=O)NCC4CC4)C3)cc2F)C(=O)N1 (stereo not drawn) [Compound 82, 1-(4-(2,6-dioxopiperidin-3-yl)-3,5-difluorophenyl)azetidin-3-yl (cyclopropylmethyl)carbamate]
IC50 (CRBN-DDB1): 100 to 1000 nM | DC50 (GSPT1): > 300 nM

O=C1CCC(c2c(F)cc(N3CC(OC(=O)N[C@@H]4CCOC4)C3)cc2F)C(=O)N1 (stereo partly drawn) [Compound 83, 1-(4-(2,6-dioxopiperidin-3-yl)-3,5-difluorophenyl)azetidin-3-yl ((R)-tetrahydrofuran-3-yl)carbamate]
IC50 (CRBN-DDB1): 100 to 1000 nM | DC50 (GSPT1): > 300 nM

O=C1CCC(c2c(F)cc(N3CC(OC(=O)N[C@H]4CCCOC4)C3)cc2F)C(=O)N1 (stereo partly drawn) [Compound 84, 1-(4-(2,6-dioxopiperidin-3-yl)-3,5-difluorophenyl)azetidin-3-yl ((S)-tetrahydro-2H-pyran-3-yl)carbamate]
IC50 (CRBN-DDB1): 100 to 1000 nM | DC50 (GSPT1): > 300 nM

O=C1CCC(c2c(F)cc(N3CC(OC(=O)N[C@@H]4CCCOC4)C3)cc2F)C(=O)N1 (stereo partly drawn) [Compound 85, 1-(4-(2,6-dioxopiperidin-3-yl)-3,5-difluorophenyl)azetidin-3-yl((R)-tetrahydro-2H-pyran-3-yl)carbamate]
IC50 (CRBN-DDB1): 100 to 1000 nM | DC50 (GSPT1): > 300 nM

O=C1CCC(c2c(F)cc(N3CC(OC(=O)NC4CC4)C3)cc2F)C(=O)N1 (stereo not drawn) [Compound 86, 1-(4-(2,6-dioxopiperidin-3-yl)-3,5-difluorophenyl)azetidin-3-yl cyclopropylcarbamate]
IC50 (CRBN-DDB1): 100 to 1000 nM | DC50 (GSPT1): > 300 nM

O=C1CCC(c2c(F)cc(N3CC(OC(=O)NCC(F)(F)F)C3)cc2F)C(=O)N1 (stereo not drawn) [Compound 87, 1-(4-(2,6-dioxopiperidin-3-yl)-3,5-difluorophenyl)azetidin-3-yl (2,2,2-trifluoroethyl)carbamate]
IC50 (CRBN-DDB1): 100 to 1000 nM | DC50 (GSPT1): > 300 nM

O=C1CCC(c2c(F)cc(N3CC(OC(=O)NC4CC(F)(F)C4)C3)cc2F)C(=O)N1 (stereo not drawn) [Compound 88, 1-(4-(2,6-dioxopiperidin-3-yl)-3,5-difluorophenyl)azetidin-3-yl(3,3-difluorocyclobutyl)carbamate]
IC50 (CRBN-DDB1): 100 to 1000 nM | DC50 (GSPT1): > 300 nM

CC(C)(C)NC(=O)OC1CN(c2cc(F)c(C3CCC(=O)NC3=O)c(F)c2)C1 (stereo not drawn) [Compound 89, 1-(4-(2,6-dioxopiperidin-3-yl)-3,5-difluorophenyl)azetidin-3-yl tert-butylcarbamate]
IC50 (CRBN-DDB1): 100 to 1000 nM | DC50 (GSPT1): > 300 nM

O=C1CCC(c2c(F)cc(N3CC(OC(=O)NC4CCC4)C3)cc2F)C(=O)N1 (stereo not drawn) [Compound 90, 1-(4-(2,6-dioxopiperidin-3-yl)-3,5-difluorophenyl) azetidin-3-yl cyclobutylcarbamate]
IC50 (CRBN-DDB1): 100 to 1000 nM | DC50 (GSPT1): > 300 nM

O=C1CCC(c2c(F)cc(N3CC(OC(=O)NCC4CCC4)C3)cc2F)C(=O)N1 (stereo not drawn) [Compound 91, 1-(4-(2,6-dioxopiperidin-3-yl)-3,5-difluorophenyl)azetidin-3-yl (cyclobutylmethyl)carbamate]
IC50 (CRBN-DDB1): 100 to 1000 nM | DC50 (GSPT1): 30 to 300 nM

O=C1CCC(c2c(F)cc(N3CC(OC(=O)NC4CCCC4)C3)cc2F)C(=O)N1 (stereo not drawn) [Compound 92, 1-(4-(2,6-dioxopiperidin-3-yl)-3,5-difluorophenyl)azetidin-3-yl cyclopentylcarbamate]
IC50 (CRBN-DDB1): 100 to 1000 nM | DC50 (GSPT1): > 300 nM

CC1(C)CCC(NC(=O)OC2CN(c3cc(F)c(C4CCC(=O)NC4=O)c(F)c3)C2)CC1 (stereo not drawn) [Compound 93, 1-(4-(2,6-dioxopiperidin-3-yl)-3,5-difluorophenyl)azetidin-3-yl (4,4-dimethylcyclohexyl) carbamate]
IC50 (CRBN-DDB1): ≤ 100 nM | DC50 (GSPT1): ≤ 30 nM

O=C1CCC(c2c(F)cc(N3CC(OC(=O)NC4CCOCC4)C3)cc2F)C(=O)N1 (stereo not drawn) [Compound 94, 1-(4-(2,6-dioxopiperidin-3-yl)-3,5-difluorophenyl)azetidin-3-yl (tetrahydro-2H-pyran-4-yl)carbamate]
IC50 (CRBN-DDB1): 100 to 1000 nM | DC50 (GSPT1): > 300 nM

O=C1CCC(c2c(F)cc(N3CC(OC(=O)NC4COC4)C3)cc2F)C(=O)N1 (stereo not drawn) [Compound 95, 1-(4-(2,6-dioxopiperidin-3-yl)-3,5-difluorophenyl)azetidin-3-yl oxetan-3-ylcarbamate]
IC50 (CRBN-DDB1): 100 to 1000 nM | DC50 (GSPT1): > 300 nM

O=C1CCC(c2c(F)cc(N3CC(OC(=O)NCC4CC(F)(F)C4)C3)cc2F)C(=O)N1 (stereo not drawn) [Compound 96, 1-(4-(2,6-dioxopiperidin-3-yl)-3,5-difluorophenyl)azetidin-3-yl ((3,3-difluorocyclobutyl)methyl)carbamate]
IC50 (CRBN-DDB1): 100 to 1000 nM | DC50 (GSPT1): 30 to 300 nM

CC1(C)CC(NC(=O)OC2CN(c3cc(F)c(C4CCC(=O)NC4=O)c(F)c3)C2)C1 (stereo not drawn) [Compound 97, 1-(4-(2,6-dioxopiperidin-3-yl)-3,5-difluorophenyl)azetidin-3-yl (3,3-dimethylcyclobutyl)carbamate]
IC50 (CRBN-DDB1): ≤ 100 nM | DC50 (GSPT1): ≤ 30 nM

C[C@@H](NC(=O)OC1CN(c2cc(F)c(C3CCC(=O)NC3=O)c(F)c2)C1)c1ccccc1 (stereo partly drawn) [Compound 123, 1-(4-(2,6-dioxopiperidin-3-yl)-3,5-difluorophenyl)azetidin-3-yl((R)-1-phenylethyl)carbamate]
IC50 (CRBN-DDB1): ≤ 100 nM | DC50 (GSPT1): ≤ 30 nM

C[C@H]1CC[C@H](NC(=O)OC2CN(c3cc(F)c(C4CCC(=O)NC4=O)c(F)c3)C2)CC1 (stereo partly drawn) [Compound 124, 1-(4-(2,6-dioxopiperidin-3-yl)-3,5-difluorophenyl)azetidin-3-yl((1R,4R)-4-methylcyclohexyl) carbamate]
IC50 (CRBN-DDB1): ≤ 100 nM | DC50 (GSPT1): ≤ 30 nM
